# Test results from PubChem BioAssay (NCI).
#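 Exposure lasted 48 hours, with cells grown in 96-well plates and compounds tested at five concentrations. GI50 marks 50% less growth. TGI: total growth inhibition.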
# What was measured:
# Assay in all cases: NCI anticancer screen, dose series, 48 h
# NCI-H522 lung = tested on: NCI-H522 lung
# NCI/ADR-RES ovarian = tested on: NCI/ADR-RES ovarian
# SK-OV-3 ovarian = tested on: SK-OV-3 ovarian
# SK-MEL-28 melanoma = tested on: SK-MEL-28 melanoma
# HCT-116 colon = tested on: HCT-116 colon
# CCRF-CEM leukemia = tested on: CCRF-CEM leukemia
# ACHN renal = tested on: ACHN renal
# UO-31 renal = tested on: UO-31 renal
# MCF7 breast = tested on: MCF7 breast
# SN12C renal = tested on: SN12C renal
# RXF 393 renal = tested on: RXF 393 renal
# A549 NSCLC = tested on: A549 NSCLC
# OVCAR-8 ovarian = tested on: OVCAR-8 ovarian
# KM12 colon = tested on: KM12 colon
# SK-MEL-2 melanoma = tested on: SK-MEL-2 melanoma
# MOLT-4 leukemia = tested on: MOLT-4 leukemia
# OVCAR-5 ovarian = tested on: OVCAR-5 ovarian
# COLO 205 colon = tested on: COLO 205 colon
# HS 578T breast = tested on: HS 578T breast
# UACC-257 melanoma = tested on: UACC-257 melanoma
# A498 renal = tested on: A498 renal
# SF-539 CNS = tested on: SF-539 CNS
# HT29 colon = tested on: HT29 colon
# TK-10 renal = tested on: TK-10 renal
# HCC-2998 colon = tested on: HCC-2998 colon
# BT-549 breast = tested on: BT-549 breast
# MALME-3M melanoma = tested on: MALME-3M melanoma
# 786-0 renal = tested on: 786-0 renal
# SR leukemia = tested on: SR leukemia
# SF-268 CNS = tested on: SF-268 CNS
# U251 CNS = tested on: U251 CNS
# OVCAR-4 ovarian = tested on: OVCAR-4 ovarian
# HCT-15 colon = tested on: HCT-15 colon
# EKVX NSCLC = tested on: EKVX NSCLC
# SW-620 colon = tested on: SW-620 colon
# SF-295 CNS = tested on: SF-295 CNS
# RPMI-8226 leukemia = tested on: RPMI-8226 leukemia
# PC-3 prostate = tested on: PC-3 prostate
# MDA-MB-435 = tested on: MDA-MB-435
# LOX IMVI melanoma = tested on: LOX IMVI melanoma
# DU-145 prostate = tested on: DU-145 prostate
# SNB-75 CNS = tested on: SNB-75 CNS
# SNB-19 CNS = tested on: SNB-19 CNS
# IGROV1 ovarian = tested on: IGROV1 ovarian
# NCI-H23 lung = tested on: NCI-H23 lung
# HOP-62 NSCLC = tested on: HOP-62 NSCLC
# T-47D breast = tested on: T-47D breast
# SK-MEL-5 melanoma = tested on: SK-MEL-5 melanoma
# NCI-H460 lung = tested on: NCI-H460 lung
# NCI-H226 lung = tested on: NCI-H226 lung
# CAKI-1 renal = tested on: CAKI-1 renal
# K-562 leukemia = tested on: K-562 leukemia
# HL-60(TB) leukemia = tested on: HL-60(TB) leukemia
# UACC-62 melanoma = tested on: UACC-62 melanoma
# HOP-92 NSCLC = tested on: HOP-92 NSCLC
# M14 melanoma = tested on: M14 melanoma
# MDA-MB-231 breast = tested on: MDA-MB-231 breast
structure (smiles),measurement,setting,value
O=C1CCC(N2C(=O)c3ccc(NS(=O)(=O)c4ccccc4OC(F)(F)F)cc3C2=O)C(=O)N1 (stereo unspecified),TGI,NCI-H522 lung,> 100000 nM
same,GI50,NCI/ADR-RES ovarian,700 nM
same,TGI,NCI/ADR-RES ovarian,> 100000 nM
same,GI50,SK-OV-3 ovarian,2600 nM
same,TGI,SK-OV-3 ovarian,> 100000 nM
same,GI50,SK-MEL-28 melanoma,7370 nM
same,TGI,SK-MEL-28 melanoma,> 100000 nM
same,GI50,HCT-116 colon,> 100000 nM
same,TGI,HCT-116 colon,> 100000 nM
same,GI50,CCRF-CEM leukemia,31.2 nM
same,GI50,ACHN renal,8700 nM
same,TGI,ACHN renal,> 100000 nM
same,GI50,UO-31 renal,306 nM
same,TGI,UO-31 renal,> 29100 nM
same,GI50,MCF7 breast,1680 nM
same,TGI,MCF7 breast,> 100000 nM
same,GI50,SN12C renal,1140 nM
same,TGI,SN12C renal,> 100000 nM
same,GI50,RXF 393 renal,609 nM
same,TGI,RXF 393 renal,7950 nM
same,GI50,A549 NSCLC,7000 nM
same,TGI,A549 NSCLC,> 100000 nM
same,GI50,OVCAR-8 ovarian,159 nM
same,TGI,OVCAR-8 ovarian,> 100000 nM
same,GI50,KM12 colon,1970 nM
same,TGI,KM12 colon,> 100000 nM
same,GI50,SK-MEL-2 melanoma,1670 nM
same,TGI,SK-MEL-2 melanoma,38400 nM
same,GI50,MOLT-4 leukemia,31.4 nM
same,TGI,MOLT-4 leukemia,341 nM
same,GI50,OVCAR-5 ovarian,12600 nM
same,TGI,OVCAR-5 ovarian,> 100000 nM
same,GI50,COLO 205 colon,857 nM
same,TGI,COLO 205 colon,> 27200 nM
same,GI50,HS 578T breast,58.2 nM
same,TGI,HS 578T breast,1430 nM
same,GI50,UACC-257 melanoma,> 100000 nM
same,TGI,UACC-257 melanoma,> 100000 nM
same,GI50,A498 renal,266 nM
same,TGI,A498 renal,1750 nM
same,GI50,SF-539 CNS,> 50700 nM
same,TGI,SF-539 CNS,> 100000 nM
same,GI50,HT29 colon,7700 nM
same,TGI,HT29 colon,> 100000 nM
same,GI50,TK-10 renal,2720 nM
same,TGI,TK-10 renal,> 100000 nM
same,GI50,HCC-2998 colon,729 nM
same,TGI,HCC-2998 colon,> 70800 nM
same,GI50,BT-549 breast,120 nM
same,TGI,BT-549 breast,1610 nM
same,GI50,MALME-3M melanoma,147 nM
same,TGI,MALME-3M melanoma,3490 nM
same,GI50,786-0 renal,668 nM
same,TGI,786-0 renal,> 100000 nM
same,GI50,SR leukemia,10800 nM
same,TGI,SR leukemia,> 100000 nM
same,GI50,SF-268 CNS,911 nM
same,TGI,SF-268 CNS,> 100000 nM
same,GI50,U251 CNS,> 100000 nM
same,TGI,U251 CNS,> 100000 nM
same,GI50,OVCAR-4 ovarian,2610 nM
same,TGI,OVCAR-4 ovarian,> 100000 nM
same,GI50,HCT-15 colon,100 nM
same,TGI,HCT-15 colon,> 68000 nM
same,GI50,EKVX NSCLC,> 100000 nM
same,TGI,EKVX NSCLC,> 100000 nM
same,GI50,SW-620 colon,312 nM
same,TGI,SW-620 colon,> 100000 nM
same,GI50,SF-295 CNS,4380 nM
same,TGI,SF-295 CNS,> 100000 nM
same,GI50,RPMI-8226 leukemia,7630 nM
same,TGI,RPMI-8226 leukemia,> 100000 nM
same,GI50,PC-3 prostate,455 nM
same,TGI,PC-3 prostate,> 27800 nM
same,GI50,MDA-MB-435,6340 nM
same,TGI,MDA-MB-435,> 100000 nM
same,GI50,LOX IMVI melanoma,> 100000 nM
same,TGI,LOX IMVI melanoma,> 100000 nM
same,GI50,DU-145 prostate,> 100000 nM
same,TGI,DU-145 prostate,> 100000 nM
same,GI50,SNB-75 CNS,110 nM
same,TGI,SNB-75 CNS,2680 nM
same,GI50,SNB-19 CNS,843 nM
same,TGI,SNB-19 CNS,> 100000 nM
same,GI50,IGROV1 ovarian,465 nM
same,TGI,IGROV1 ovarian,> 100000 nM
same,GI50,NCI-H23 lung,> 100000 nM
same,TGI,NCI-H23 lung,> 100000 nM
same,GI50,HOP-62 NSCLC,187 nM
same,TGI,HOP-62 NSCLC,2460 nM
same,GI50,T-47D breast,165 nM
same,GI50,SK-MEL-5 melanoma,2560 nM
same,TGI,SK-MEL-5 melanoma,> 27000 nM
same,GI50,NCI-H460 lung,> 100000 nM
same,TGI,NCI-H460 lung,> 100000 nM
same,GI50,NCI-H226 lung,1120 nM
same,TGI,NCI-H226 lung,> 100000 nM
same,GI50,CAKI-1 renal,456 nM
same,TGI,CAKI-1 renal,> 100000 nM
same,GI50,K-562 leukemia,3010 nM
same,TGI,K-562 leukemia,> 100000 nM
same,GI50,HL-60(TB) leukemia,27.9 nM
same,TGI,HL-60(TB) leukemia,350 nM
same,GI50,UACC-62 melanoma,16100 nM
same,TGI,UACC-62 melanoma,> 100000 nM
same,GI50,HOP-92 NSCLC,22 nM
same,TGI,HOP-92 NSCLC,161 nM
same,GI50,M14 melanoma,1590 nM
same,TGI,M14 melanoma,> 100000 nM
same,GI50,MDA-MB-231 breast,82 nM
same,TGI,MDA-MB-231 breast,2260 nM
